Here are results for 21 molecules from patent US20230087118A1, “IMIDAZO[1,2-a][sequence] DERIVATIVES AND THEIR USE IN THE TREATMENT OF DISEASE” (priority 2019, published 2023).

Counter-ions that a name gives are not always drawn.

The first test has as its target T1, IRAK4 (Homo sapiens, UniProt Q9NWZ3).
T1 sequence (Q9NWZ3 1-460): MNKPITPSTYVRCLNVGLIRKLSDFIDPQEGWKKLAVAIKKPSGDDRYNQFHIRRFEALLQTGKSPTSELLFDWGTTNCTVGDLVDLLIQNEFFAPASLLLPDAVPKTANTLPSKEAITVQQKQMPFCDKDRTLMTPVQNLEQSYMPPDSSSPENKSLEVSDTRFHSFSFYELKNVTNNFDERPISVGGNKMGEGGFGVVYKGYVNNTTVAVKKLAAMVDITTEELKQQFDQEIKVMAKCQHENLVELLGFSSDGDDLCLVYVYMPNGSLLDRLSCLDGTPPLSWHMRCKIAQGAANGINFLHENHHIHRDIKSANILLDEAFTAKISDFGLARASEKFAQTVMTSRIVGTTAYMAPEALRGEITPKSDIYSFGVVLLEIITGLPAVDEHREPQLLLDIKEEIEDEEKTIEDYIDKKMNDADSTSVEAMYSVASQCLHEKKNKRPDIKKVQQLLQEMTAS
The test is described as follows: biochemical.
Settings: not given
By IC50 is commonly meant the concentration that gives 50% inhibition. A lower IC50 goes with higher potency. The molecule `Cn1ccc(NC(=O)c2cn3cc(C45CCC(C)(C4)OC5)nc3cc2OC2CCC2)n1` (stereo not drawn) [Example 561, 7-Cyclobutoxy-N-(1-methyl-1H-pyrazol-3-yl)-2-(1-methyl-2-oxabicyclo[2.2.1]heptan-4-yl)imidazo[1,2-a]pyridine-6-carboxamide] came in with an IC50 of 0.0014 µM.
Take `CC(C)Oc1nc2nc(C34COC(CF)(C3)C4)cn2cc1C(=O)Nc1cnn2cccnc12` [Example 563, 2-(1-(Fluoromethyl)-2-oxabicyclo[2.1.1]hexan-4-yl)-7-isopropoxy-N-(pyrazolo[1,5-a]pyrimidin-3-yl)imidazo[1,2-a]pyrimidine-6-carboxamide]: the IC50 came out at 0.0005 µM. Compared with the last molecule, the IC50 is about 2.8-fold lower.
Regarding `CC(C)Oc1nc2nc(C34COC(CF)(C3)C4)cn2cc1C(=O)Nc1cccc(C(F)F)n1` [Example 564, N-(6-(difluoromethyl)pyridin-2-yl)-2-(1-(fluoromethyl)-2-oxabicyclo[2.1.1]hexan-4-yl)-7-isopropoxyimidazo[1,2-a]pyrimidine-6-carboxamide], the IC50 was 0.0003 µM.
`CC(C)Oc1nc2nc(C34CCC(C3)OC4)cn2cc1C(=O)Nc1cnn2cccnc12` (stereo not drawn) [Example 565, 2-(2-Oxabicyclo[2.2.1]heptan-4-yl)-7-isopropoxy-N-(pyrazolo[1,5-a]pyrimidin-3-yl)imidazo[1,2-a]pyrimidine-6-carboxamide] gave an IC50 of 0.0005 µM. Against the preceding molecule, the IC50 is about 1.7-fold higher.
As to `CC(C)Oc1nc2nc(C34CCC(C)(CC3)CO4)cn2cc1C(=O)Nc1ccn(C)n1` [Example 566, 7-Isopropoxy-N-(1-methyl-1H-pyrazol-3-yl)-2-(4-methyl-2-oxabicyclo[2.2.2]octan-1-yl)imidazo[1,2-a]pyrimidine-6-carboxamide], the IC50 worked out at 0.0009 µM.
The same measure, in the same setting: the result for `Cc1cnc2c(NC(=O)c3cn4cc(C56CCC(C)(CC5)CO6)nc4nc3OC(C)C)cnn2c1` [Example 567, 7-Isopropoxy-2-(4-methyl-2-oxabicyclo[2.2.2]octan-1-yl)-N-(6-methylpyrazolo[1,5-a]pyrimidin-3-yl)imidazo[1,2-a]pyrimidine-6-carboxamide] reads 0.0002 µM.
Still for that read-out and setting: in the case of `Cc1cnc2c(NC(=O)c3cn4cc(C56COC(C)(C5)C6)nc4cc3OC3CCCC3)cnn2c1` [Example 568, 7-(Cyclopentyloxy)-2-(1-methyl-2-oxabicyclo[2.1.1]hexan-4-yl)-N-(6-methylpyrazolo[1,5-a]pyrimidin-3-yl)imidazo[1,2-a]pyridine-6-carboxamide] it was 0.0002 µM.
Regarding `Cc1cnc2c(NC(=O)c3cn4cc(C56CCC(C)(C5)OC6)nc4nc3OC(C)C)cnn2c1` (stereo not drawn) [Example 569, 7-Isopropoxy-2-(1-methyl-2-oxabicyclo[2.2.1]heptan-4-yl)-N-(6-methylpyrazolo[1,5-a]pyrimidin-3-yl)imidazo[1,2-a]pyrimidine-6-carboxamide], the IC50 is 0.0024 µM.
Take `Cn1ccc(NC(=O)c2cn3cc(C45CCC(C)(CC4)OC5)nc3cc2OC2CCC2)n1` [Example 570, 7-Cyclobutoxy-N-(1-methyl-1H-pyrazol-3-yl)-2-(1-methyl-2-oxabicyclo[2.2.2]octan-4-yl)imidazo[1,2-a]pyridine-6-carboxamide]: half-maximal inhibition (IC50) required 0.0004 µM.
The molecule `CC(C)Oc1cc2nc(C34CCC(C)(CC3)OC4)cn2cc1C(=O)Nc1cnn2cccnc12` [Example 572, 7-Isopropoxy-2-(1-methyl-2-oxabicyclo[2.2.2]octan-4-yl)-N-(pyrazolo[1,5-a]pyrimidin-3-yl)imidazo[1,2-a]pyridine-6-carboxamide] had an IC50 of 0.0004 µM.
`Cc1cnc2c(NC(=O)c3cn4cc(C56COC(C)(C5)C6)nc4nc3OC3CCC3)cnn2c1` [Example 575, 7-Cyclobutoxy-2-(1-methyl-2-oxabicyclo[2.1.1]hexan-4-yl)-N-(6-methylpyrazolo[1,5-a]pyrimidin-3-yl)imidazo[1,2-a]pyrimidine-6-carboxamide] registered an IC50 of 0.0007 µM.
`Cn1ccc(NC(=O)c2cn3cc(C45CCC(C)(C4)OC5)nc3cc2OC2CCCC2)n1` (stereo not drawn) [Example 632, 7-(Cyclopentyloxy)-N-(1-methyl-1H-pyrazol-3-yl)-2-(1-methyl-2-oxabicyclo[2.2.1]heptan-4-yl)imidazo[1,2-a]pyridine-6-carboxamide] displayed an IC50 of 0.0018 µM.
Molecule `CC(C)Oc1cc2nc(C3CC3)cn2cc1C(=O)Nc1cccc(C#N)n1` [Example 638, N-(6-cyanopyridin-2-yl)-2-cyclopropyl-7-isopropoxyimidazo[1,2-a]pyridine-6-carboxamide] came in with an IC50 of 0.0045 µM.
For the molecule `CC12CC(c3cn4cc(C(=O)Nc5ccn(C(F)F)n5)c(OCC5CC5)nc4n3)(CO1)C2` [Example 639, 7-(Cyclopropylmethoxy)-N-(1-(difluoromethyl)-1H-pyrazol-3-yl)-2-(1-methyl-2-oxabicyclo[2.1.1]hexan-4-yl)imidazo[1,2-a]pyrimidine-6-carboxamide], inhibition was half-maximal at 0.0181 µM (IC50).
With `CC(C)Oc1nc2nc(C34COC(C)(C3)C4)cn2cc1C(=O)Nc1cccc(-c2cnoc2)n1` [Example 640, 7-Isopropoxy-N-(6-(isoxazol-4-yl)pyridin-2-yl)-2-(1-methyl-2-oxabicyclo[2.1.1]hexan-4-yl)imidazo[1,2-a]pyrimidine-6-carboxamide], the IC50 amounted to 0.0007 µM.
With `CC12CCC(c3cn4cc(C(=O)Nc5cnc6cccnn56)c(OC5CCC5)cc4n3)(CO1)C2` (stereo not drawn) [Example 649, 7-cyclobutoxy-N-(imidazo[1,2-b]pyridazin-3-yl)-2-(1-methyl-2-oxabicyclo[2.2.1]heptan-4-yl)imidazo[1,2-a]pyridine-6-carboxamide], 0.0002 µM corresponded to half-maximal inhibition (IC50).

The same test, now with this note: IRAK4 Biochemical Assay (1 mM ATP, 2 h) IC50 (μM), 1 mM ATP, 2 h, 100 pM IRAK4.
In turn, `CC(C)Oc1cc2nc(C34CCC(C)(CC3)OC4)cn2cc1C(=O)Nc1ccn(C)n1` [Example 571, 7-Isopropoxy-N-(1-methyl-1H-pyrazol-3-yl)-2-(1-methyl-2-oxabicyclo[2.2.2]octan-4-yl)imidazo[1,2-a]pyridine-6-carboxamide] registered an IC50 of 0.0017 µM.
Consider `Cc1cnc2c(NC(=O)c3cn4cc(C56CCC(C)(CC5)OC6)nc4cc3OC(C)C)cnn2c1` [Example 573, 7-Isopropoxy-2-(1-methyl-2-oxabicyclo[2.2.2]octan-4-yl)-N-(6-methylpyrazolo[1,5-a]pyrimidin-3-yl)imidazo[1,2-a]pyridine-6-carboxamide], for which half-maximal inhibition (IC50) was put at 0.0018 µM.
With `CC(C)Oc1cc2nc(C34CCC(C)(CC3)OC4)cn2cc1C(=O)Nc1cccn(C)c1=O` [Example 574, 7-Isopropoxy-N-(1-methyl-2-oxo-1,2-dihydropyridin-3-yl)-2-(1-methyl-2-oxabicyclo[2.2.2]octan-4-yl)imidazo[1,2-a]pyridine-6-carboxamide], half-maximal inhibition (IC50) required 0.0002 µM. This IC50 lies about 9-fold lower than the previous one.
`Cn1cccc(NC(=O)c2cn3cc(C4CC4)nc3c(OCCF)n2)c1=O` [Example 637, 2-Cyclopropyl-8-(2-fluoroethoxy)-N-(1-methyl-2-oxo-1,2-dihydropyridin-3-yl)imidazo[1,2-a]pyrazine-6-carboxamide trifluoroacetate]: half-maximal inhibition (IC50) was put at 0.0445 µM.
Take `CC(C)Oc1cc2nc(C34COC(C)(C3)C4)cn2cc1C(=O)Nc1cc(F)n(C)n1` [Example 641, N-(5-fluoro-1-methyl-1H-pyrazol-3-yl)-7-isopropoxy-2-(1-methyl-2-oxabicyclo[2.1.1]hexan-4-yl)imidazo[1,2-a]pyridine-6-carboxamide trifluoroacetate]: half-maximal inhibition (IC50) was put at 0.0062 µM.
